Data taken from patent publication US9803164B2, “Megakaryocyte and platelet production from stem cells” (priority 2011, dated 2017).
Residues, ends and D or L forms follow the SMILES beside them. *: point of attachment. Cbz = O=C(OCc1ccccc1)*; CH2F = FC*

How the values were obtained:
Type in all cases: cell-based
[1] = test system: platelets collected from the bioreactor; assay: Platelet surface expression of P-selectin after activation, flow cytometry; details: PMA 10 μg/mL, 15 min, room temperature; 25% at baseline
Protocol: Platelets collected from the bioreactor were tested for their function based on the externalization of P-Selectin after activation with phorbol myristate acetate (PMA) using flow cytometry. Platelets were collected in eppendorf tubes, labeled with Alexa 647-conjugated anti-CD41 antibody, PE-conjugated anti-CD-62P (Becton Dickinson) and a live cell stain, Calcein AM (Sigma-Aldrich) for 15 min at room temperature. Next, platelets were activated using PMA (Sigma Aldrich) 10 μg/mL for 15 min at room temperature. Cells were then analyzed by flow cytometry for P-Selectin externalization. Anti-Y1-PE (Becton Dickinson) was used as an isotype control.

[2] = test system: UCB derived CD34 cells; assay: Expansion of UCB derived CD34 enriched cells in serum-free suspension culture with reagents; details: control mean 40-fold, n=3; for CD34 fold expansion (mean): day 7 of culture, SR-1 0.75 μM, TEPA 5 μM, zVADfmk 100 nM, SCF, TPO, FLT3-ligand 50 ng/ml
Protocol: Umbilical cord blood units not suitable for clinical use were obtained from the New York Blood Center National Cord Blood Bank, where they were collected after informed consent in accord with the Declaration of Helsinki. Isolation of umbilical cord blood CD34 cells was performed using either a positive selection or a negative selection method. The positive selection method used has been described in G. Mattia et al., Different ploidy levels of megakaryocytes generated from peripheral or cord blood CD34+ cells are correlated with different levels of platelet release, 99(3) BLOOD 888 (February 2002). Briefly, mononuclear cells were layered on a Ficoll-Hypaque gradient (GE Healthcare, Barrington, Ill.), washed twice with phosphate-buffered saline (PBS) (Life Technologies) supplemented with 5% fetal bovine serum (FBS) (Life Technologies). To purify CD34 cells, the mononuclear selection fraction was subject to two cycles of immunomagnetic bead separation using a MINIMACS CD34 isolation kit (Miltenyi Biotech, Auburn, Calif.), according to manufacturer's recommendations. The purity of the sample ranged from 70% to 90% CD34 positive and was approximately 30% CD41 positive based on flow cytometry analysis.
The negative selection method was based on previously described methods where umbilical cord blood-derived CD34 cells were enriched by a negative selection method with the use of ROSETTESEP (Stem Cell Technologies, Vancouver, Canada). M. P. Avanzi et al., Optimizing megakaryocyte polyploidization by targeting multiple pathways of cytokinesis, 52(11) TRANSFUSION 2406 (November 2012). Briefly, cells were washed with phosphate buffered saline (PBS, Life Technologies) and incubated with ROSETTESEP reagent for 10 min at room temperature. Next, cells were layered on a Ficoll-Hypaque gradient, washed twice with phosphate-buffered saline. The final product was approximately 20% to 30% CD34 positive and 30% CD41 positive.
UCB derived CD34 enriched cells were plated at a density of 1×10^4 per well (24 well plate) in suspension culture and combined with one of the following reagents: STEM REGENIN-1 (StemCell Technologies, Vancouver, BC), 0.75 μM; copper chelator tetraethylenepentamine, 5 μM (TEPA) (Sigma Aldrich, St Louis, Mo.); or zVADfmk, 100 nM (Abcam, Cambridge, Mass.). Reagents were added with culture medium and cytokine cocktail on day 0, 4, 7 and 10 of culture. Additionally, in separate experiments, CD34 enriched cells were expanded on NANEX nanofiber membranes (Arteriocyte, Cleveland Ohio). […]
All flow cytometry experiments where performed with a BD FACS LSR FORTESSA machine (Becton Dickinson, San Jose, Calif.) and analyzed with BD FACSDIVA software (Becton Dickinson). […] Labeled cells were then analyzed and counted.

[3] = test system: megakaryocytes (CD41 cells); assay: Megakaryocyte ploidy by flow cytometry after induction of polyploidization; details: day 11; treated once on day 8; latrunculin 10 μg/ml or Y27632 10 μM; controls less than 10%; p=0.007, n=3
Protocol: (§1) At the completion of the megakaryocyte differentiation stage on day 8, megakaryocytes were stimulated to undergo polyploidization by adding either the actin polymerization inhibitor, latrunculin (Santa Cruz Biotechnologies, Dallas, Tex.), at a final concentration of 10 μg/ml, or the Rho-kinase inhibitor, Y27632 (Sigma Aldrich, St. Louis, Mo.), at 10 μM, and then culturing the cells for an additional 3 or 4 days.
Megakaryocyte ploidy was analyzed on day 11 of culture. Cells were labeled with Alexa 647-conjugated anti-CD41 antibody, incubated for 20 min on ice, fixed with 4% paraformaldehyde (Fisher Scientific) for 15 minutes and then washed with PBS. Next, cells were permeabilized with methanol 75% (Sigma Aldrich) for 1 hour at 4° C. and washed with PBS+BSA, 2%+NP40, 0.05% (Fischer Scientific) solution. Finally cells were treated with Propidium Iodide/RNase solution (Becton Dickinson) and incubated for 30 minutes in the dark at room temperature before flow cytometry analysis.

[4] = test system: megakaryocytes; assay: Proplatelet formation quantification (grid strategy); details: day 11; treated on day 8; p=0.02, n=3
Protocol: as §1
Proplatelet formation was quantified on day 11 of culture using a grid strategy, as previously described by M. P. Avanzi et al., Rho kinase inhibition drives megakaryocyte polyploidization and proplatelet formation through MYC and NFE2 downregulation, 164(6) BR. J HAEMATOL. 867 (March 2014). Briefly, using an inverted light microscope (Olympus CKX41) 10 random-field images were acquired at 40× magnification from each well. All megakaryocytes present on each field were counted. A counting grid with 25 μm squares was used to enumerate the number of proplatelet processes. Each proplatelet segment inside each square was counted and the sum of all segments in 10 random field images (40× magnification) was used for comparison. From these numbers, a measure of proplatelet density per cell per unit area was generated and used to compare the results of different culture conditions.

Molecule	CD34 fold expansion (mean) [2] [fold]	Proportion of megakaryocytes with ploidy >8 [3] [%]	Proplatelets generated compared with control megakaryocytes [4]	also measured
CCCCCCCCCCCCCC(=O)O[C@@H]1[C@@H](C)[C@@]2(O)[C@@H](C=C(CO)C[C@]3(O)C(=O)C(C)=C[C@@H]23)[C@@H]2C(C)(C)[C@]12OC(C)=O [PMA, phorbol 12-myristate 13-acetate]				Particles expressing p-selectin after stimulation [1]: 65%
CC(C)n1cnc2c(NCCc3ccc(O)cc3)nc(-c3csc4ccccc34)nc21 [SR-1, stem regenin-1]	85			CD34 fold expansion versus control culture (significance) ([2]; day 7): not significantly different
NCCNCCNCCNCCN [TEPA, tetraethylenepentamine]	19			
C[C@@H](N)[C@H]1CC[C@H](C(=O)Nc2ccncc2)CC1 [Y27632]		30	significantly more	
COC(=O)CC(NC(=O)C(C)NC(=O)C(NC(=O)OCc1ccccc1)C(C)C)C(=O)CF (stereo not drawn) [zVADfmk, benzyloxycarbonyl-Val-Ala-Asp (OMe) fluoromethylketone] (Cbz-Val-Ala-Asp(OMe)-CH2F; configuration not given here)	25			
latrunculin		30	significantly more	
